Key:
[1] = system: Aβ25-35-treated primary cortical neurons; assay: Cortical neuron survival assay with amyloid-beta peptide insult (MTT); format: cell-based, rat; settings: for cell survival of cortical neurons treated with Aβ25-35 (MTT): 50 μM, except GAG-C69 at 30 μM, Aβ25-35 10 μM (FIG. 19)
Protocol: FIG. 4. […] After overnight incubation, the MTT assay was performed. Cell survival was calculated as a percentage compared to vehicle control (“CTL no Abeta”).
Exogenous addition of amyloid beta peptide (Aβ) initiates cell death of neuronal cultures via apoptosis.
The cells were then incubated with test samples and amyloid-beta peptide fragment 25-35 (Aβ, 10 μM, Sigma) in growth medium. A tetrazole, 3-(4,5-Dimethylthiazol-2-yl)-2,5-diphenyltetrazolium bromide (MTT, 5 mg/ml) was added to the medium at a ratio of 1:10 after 24-hr incubation. MTT is reduced by living cells into purple formazan and further solubilized in 20% SDS solution; therefore, the colored solution was measured by spectrophotometer and cell viability was quantified.

[2] = system: cleaved-caspase-3; assay: Caspase-3 expression in cortical neurons in the presence of amyloid-beta peptide (Western blot); format: cell-based, rat; settings: 10-50 μg/mL in the presence of Aβ25-35 (10 μM), overnight
Protocol: FIG. 5. Adelostemma gracillimum refined fraction inhibits caspase-3 production in primary cortical neurons induced by Aβ. Primary cortical neuron cultures (7DIV) were treated with various concentrations of AG-0 (10-50 μg/mL) in the presence of Aβ25-35 (10 μM). Proteins were extracted after overnight incubation and Western blot analysis was performed. Blots were probed with antibodies against caspase-3 and ERK protein. Staurosporine (STS, 10 μM) was used as a positive control, while DMSO served as the vehicle control.
The cells were then incubated with test samples and amyloid-beta peptide fragment 25-35 (Aβ, 10 uM, Sigma) in growth medium.

[3] = system: cyclic AMP response (CRE) element; assay: CRE-dependent transcription assay (luciferase); format: cell-based, rat; settings: hippocampal neurons 12DIV, 50 μM, 6 hours
Protocol: FIG. 41. GAG compounds enhance CRE-dependent transcription activity. GAG-C14 (a), GAG-C53 (b), GAG-C63 (c), GAG-C69 (d), GAG-C84 (e), GAG-C111 (f), GAG-C122 (g), GAG-C123 (h), and GAG-C129 (i) induce CRE-dependent transcriptional activity in cultured hippocampal neurons. On the day of cell seeding, hippocampal neurons were transfected with a firefly luciferase reporter plasmid containing cyclic AMP response (CRE)-element. The cells at 12 DIV were then treated with 50 μM of AG compounds for 6 hours. Data are mean±SEM (n=3-4), *=P<0.05, **=P<0.01, and ***=P<0.005 versus vehicle-treated cells (0 μM), student's t test.
Cultured hippocampal neurons were transfected with a firefly luciferase reporter plasmid containing a cyclic AMP response (CRE) element. At 12DIV, the cells were treated with 50 μM of compound for 6 hours, then CRE-dependent transcription activity was assayed by measuring luciferase levels.
Freshly isolated embryonic cortical neurons were transfected with a luciferase reporter gene (Cre-Luc) linked to CREB activation following the ACM lipofectamine method using Lipofectamine 2000, a cationic liposome based reagent (Invitrogen). […] Transfection was performed using 1 μL Lipofectamine 2000 and 0.4 μg DNA per well. Neurons were then treated with test samples for time periods of 6 hours. After treatment, the cells were washed with ice-cold DPBS and 100 μL of 1× luciferase lysis buffer (Promega) was added. The plates were placed in −20° C. to freeze the cells, after which they were thawed to facilitate lysis. The lysates were transferred onto white bottom plates and assayed for renilla luciferase using the luciferase assay kit (Promega). Increased CREB activation in the neurons leads to an enhanced luciferase production and this was quantified using a Promega GloMax™ 96 microplate luminometer. […] BDNF and rolipram were used as positive controls.

[4] = system: NMDA receptor; assay: Whole-cell patch clamp; format: cell-based, rat; settings: hippocampal neurons, −70 mV
Protocol: FIG. 31. GAG-C73 inhibits NMDA-induced current in hippocampal neurons. The effects of GAG-C73 on NMDA-activated currents in rat hippocampal neurons (11DIV) were examined using whole-cell patch clamp studies. Addition of NMDA induced depolarization and initiated an inward current in pyramidal cells. A. Examples of NMDA-activated currents before, during, and after application of GAG-C73 (30 μM) are shown. Horizontal bars denote GAG-C73 application. B-C. […] DMSO was used as a solvent control. The concentration of glycine was 0.1 μM, and membrane potential was held at −70 mV. n=10; three independent experiments were performed. *=P<0.05.
The NMDA receptor is a gated ion channel, which allows inflow of current during a nerve impulse. Antagonists to the receptor would prevent the inflow of current.
Hippocampal neurons were plated onto PDL-coated 35 mm dishes (NUNC) at a density of 3×10^5 cells per plate. Half of the medium was changed with NB, B27 and […] L-glutamine every 2 to 3 days. On day 12 in vitro (12DIV), whole-cell patch clamp study was performed. […] Holding potential of patched cells was kept at −70 mV and currents were recorded using Axopatch-200B amplifier (Axon Instruments, USA). […] Data was analyzed by pClamp9 software and percentage of inhibition on NMDA-induced current was' represented in comparison to a DMSO solvent control.

[5] = system: glutamate-induced excitotoxicity in cortical neurons; assay: Glutamate survival assay (LDH release); format: cell-based, rat; settings: 30 μM; glutamate 10-200 μM, all concentrations examined
Protocol: FIG. 34. GAG-C73 decreases primary neuron cell death induced by high doses of glutamate. Cortical neurons were incubated with GAG-C73 (30 μM) or DMSO control for 2 hrs, followed by co-treatment with differing concentrations of glutamate (10-200 μM) for 20 min. LDH release into the medium was then measured.
Glutamate is the physiological neurotransmitter that activates NMDA receptors. However, excess amounts of glutamate can result in excitotoxicity and potential cell death. Survival assays were conducted to determine the ability of GAG-C73 to effectively protect neuronal cells from glutamate-induced excitotoxicity.

[6] = system: NMDA receptor-induced excitotoxicity in primary cortical neuronal cells; assay: NMDA survival assay (LDH release)
Protocol: Embryonic rat cortical neurons (11 DIV) were pre-treated with various concentrations of AG—0 (0.1 -30 μg/mL) and then co-incubated with NMDA (20 μM). After 20 min, the medium was replaced with fresh medium, and after overnight incubation lactate dehydrogenase (LDH) released into the medium was measured. Cell death was calculated as a percentage compared to solvent control (“CTL without NMDA”). Assays were conducted in duplicate and repeated at least twice. *=P<0.05.
Cortical neurons were plated on 48-well plate (Nunc) at a density of 1.1×10^5 cells per well and cultured for 11-12 days (11-12 DIV). Neurons were pre-treated with the test compounds for 2 hours prior to N-Methyl-D-Aspartate (NMDA, Sigma) or glutamate (MSG, Sigma) treatment. Briefly, the neurons were rinsed with Locke's solution (5 mM potassium chloride, 128 mM sodium chloride, 2.7 mM calcium chloride, 1 mM di-sodium hydrogen orthophosphate, 5 mM HEPES and 10 mM glucose in Milli-Q water) without Mg^2+, followed by incubation in Locke's solution with addition of glycine (0.1 μM) for 15 minutes. After the incubation, the neurons were co-treated with the test compound (dissolved in Locke's plus glycine solution) and NMDA (20 μM) or glutamate for 20 min. Neurons were then rinsed with Locke's solution containing Mg^2+ and replaced with fresh growth medium. Cell death was assayed and quantified using the lactate dehydrogenase release assay (Cytotoxicity Detection Kit, Roche). Data was compared to a DMSO vehicle control and represented in mean±SEM. The student t-test was used for statistical analysis.

[7] = system: phosphorylated ERK, CREB, Akt, P38, MEK in cortical neurons; assay: Western blot detection of signaling proteins in cortical neurons; format: cell-based, rat; settings: cortical neurons 7DIV, 0.1-10 μM, 15 min (FIGS. 16, 18, 20)

Row | Compound | cell survival of cortical neurons treated with Aβ25-35 (MTT) [1] | survival of neurons against Aβ insult (MTT) ([1]; various concentrations, Aβ25-35 10 μM) | expression level of cleaved-caspase-3 (17 kDa, active form) [2] | CRE-dependent transcription activity (luciferase) [3] | NMDA-induced current (peak and plateau) ([4]; 30 μM co-treatment with NMDA) | NMDA-induced current with increasing doses [4] | cell death compared to the DMSO control (LDH) [5] | cell death compared to the DMSO control (LDH) ([6]; 30 μM, NMDA 5-100 μM, at toxic dosages of NMDA) | neuronal survival following NMDA treatment (LDH) ([6]; 30-50 μM pre-treated 2 hours, NMDA 20 min (FIG. 17)) | cell death compared to the DMSO control (LDH) ([6]; varying concentrations pre-treated 2 hrs, NMDA 20 μM) | ERK phosphorylation [7]
1 | C/C=C/c1ccc2c(c1)OC(c1ccc(O)c(OC)c1)C(C)O2 (stereo not drawn) [GAG-C69, 3-methoxyl-4-hydroxyl-(7′-E)-5′7-epoxy-8,4′-oxyneolignane-7′ en] | promoted cell survival | increases the survival of neurons against Aβ insult comparable to control levels | significantly decreased to levels comparable to that without Aβ | enhances CRE-dependent transcription | – | – | – | – | – | – | –
2 | C=C(C)[C@@H]1CCC2(C(=O)O)CC[C@]3(C)C(=CCC4[C@@]5(C)CCC(O)[C@@](C)(CO)C5CC[C@]43C)C12 (stereo partly drawn) [GAG-C73, 3,23-dihydroxyl-12(13)-en-Lup-20(29)-en-28-oic acid] | promoted cell survival | – | – | – | reduced the current induced by NMDA, for both peak and plateau currents | further decreased the NMDA-induced current | significant reduction in cell death | significant reduction in cell death | promoted neuronal survival | significant dose-dependent reduction in cell death | induced ERK phosphorylation
